Measured values reported in the supplement of paper PMC10307832.

Experiments:
Test in all cases: relative viability (nuclei count vs DMSO), 5 days (fraction); higher = more cells survive
Entinostat + Alpelisib = compound: Nc1ccccc1NC(=O)c1ccc(CNC(=O)OCc2cccnc2)cc1 [Entinostat] + Cc1nc(NC(=O)N2CCC[C@H]2C(N)=O)sc1-c1ccnc(C(C)(C)C(F)(F)F)c1 [Alpelisib] (partner 2 µM)
Outline: (§1)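 The day after seeding in 1536-well plates, lung cancer cell lines were treated by pin tool with a single drug, or with a fixed anchor-drug dose together with five library-drug doses (not always all listed) in √10 steps. After 5 days, a combined fix-and-stain solution (final 0.05% Triton X-100, 1% formaldehyde, 1 ug/ml Hoechst) was added. Nuclei counted on 4× images gave relative viability as treated counts over vehicle counts, reported as the median of duplicate plates.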

[1] = compound: C1COCCN1C2=NC(=NC3=C2OC4=C3C=CC=N4)C5=CC(=CC=C5)NC(=O)C6=CN=C(C=C6)N + Nc1nc2[nH]cc(CCc3ccc(C(=O)N[C@@H](CCC(=O)O)C(=O)O)cc3)c2c(=O)[nH]1 [Pemetrexed] (partner 0.2 µM)
Outline: as §1

Entinostat + Decitabine = compound: Nc1ccccc1NC(=O)c1ccc(CNC(=O)OCc2cccnc2)cc1 [Entinostat] + Nc1ncn([C@H]2C[C@H](O)[C@@H](CO)O2)c(=O)n1 [Decitabine] (partner 2 µM)
Outline: as §1

[2] = compound: C1COCCN1C2=NC(=NC3=C2OC4=C3C=CC=N4)C5=CC(=CC=C5)NC(=O)C6=CN=C(C=C6)N + CC(=O)Nc1cccc(-n2c(=O)n(C3CC3)c(=O)c3c(Nc4ccc(I)cc4F)n(C)c(=O)c(C)c32)c1 [Trametinib] (partner 0.02 µM)
Outline: as §1

| Cell Line | relative viability (Entinostat + Alpelisib; first compound 0.02 µM) | relative viability (Entinostat + Alpelisib; first compound 0.06325 µM) | relative viability (Entinostat + Alpelisib; first compound 0.2 µM) | relative viability (Entinostat + Alpelisib; first compound 0.6325 µM) | relative viability (Entinostat + Alpelisib; first compound 2 µM) | relative viability ([1]; first compound 0.02 µM) | relative viability ([1]; first compound 0.06325 µM) | relative viability ([1]; first compound 0.2 µM) | relative viability ([1]; first compound 0.6325 µM) | relative viability ([1]; first compound 2 µM) | relative viability (Entinostat + Decitabine; first compound 0.02 µM) | relative viability (Entinostat + Decitabine; first compound 0.06325 µM) | relative viability (Entinostat + Decitabine; first compound 0.2 µM) | relative viability (Entinostat + Decitabine; first compound 0.6325 µM) | relative viability (Entinostat + Decitabine; first compound 2 µM) | relative viability ([2]; first compound 0.02 µM) | relative viability ([2]; first compound 0.06325 µM) | relative viability ([2]; first compound 0.2 µM) | relative viability ([2]; first compound 0.6325 µM) | relative viability ([2]; first compound 2 µM) |
| --- | --- | --- | --- | --- | --- | --- | --- | --- | --- | --- | --- | --- | --- | --- | --- | --- | --- | --- | --- | --- |
| NCI-H2009 | 1.21 | 1.13 | 1.15 | 0.884 | 0.721 | 1.07 | 1.05 | 1.07 | 1.01 | 0.849 | 0.433 | 0.385 | 0.4 | 0.409 | 0.323 | 0.264 | 0.273 | 0.221 | 0.245 | 0.256 |
| HCC-827 | 0.836 | 0.848 | 0.607 | 0.532 | 0.359 | 0.249 | 0.284 | 0.262 | 0.278 | 0.265 | 0.318 | 0.338 | 0.315 | 0.223 | 0.226 | 0.488 | 0.573 | 0.459 | 0.483 | 0.408 |
| NCI-H661 | 0.733 | 0.735 | 0.68 | 0.856 | 0.683 | 0.923 | 0.918 | 0.889 | 0.921 | 0.602 | 0.58 | 0.549 | 0.538 | 0.479 | 0.356 | 0.607 | 0.631 | 0.534 | 0.599 | 0.436 |
| PC-14 | 1.03 | 0.99 | 0.935 | 0.487 | 0.219 | 0.14 | 0.135 | 0.129 | 0.0787 | 0.0733 | 0.248 | 0.184 | 0.189 | 0.109 | 0.0779 | 0.758 | 0.932 | 0.682 | 0.633 | 0.229 |
| NCI-H23 | 0.773 | 0.666 | 0.82 | 0.674 | 0.364 | 0.836 | 0.721 | 0.529 | 0.493 | 0.344 | 0.32 | 0.344 | 0.3 | 0.268 | 0.234 | 0.337 | 0.322 | 0.359 | 0.409 | 0.197 |
| SK-LU-1 | 0.954 | 0.962 | 0.943 | 0.555 | 0.458 | 1.07 | 0.953 | 1.06 | 0.917 | 0.465 | 0.643 | 0.805 | 0.638 | 0.473 | 0.418 | 0.486 | 0.502 | 0.5 | 0.42 | 0.411 |
| HCC-366 | 0.537 | 0.521 | 0.43 | 0.327 | 0.0475 | 0.186 | 0.189 | 0.195 | 0.219 | 0.0985 | 0.312 | 0.315 | 0.168 | 0.155 | 0.0591 | 0.4 | 0.341 | 0.394 | 0.231 | 0.138 |
| SW 1573 | 0.672 | 0.665 | 1.04 | 0.819 | 0.83 | 0.925 | 0.731 | 0.794 | 0.812 | 0.322 | 0.526 | 0.46 | 0.486 | 0.311 | 0.22 | 0.744 | 0.573 | 0.476 | 0.534 | 0.476 |
| HCC-44 | 0.778 | 0.588 | 0.46 | 0.329 | 0.187 | 0.616 | 0.639 | 0.676 | 0.682 | 0.653 | 0.997 | 0.841 | 0.938 | 0.721 | 0.611 | 1.12 | 1.31 | 1.04 | 1.09 | 1 |
| A-427 | 1.01 | 1.1 | 1.05 | 0.943 | 0.845 | 1 | 0.985 | 0.944 | 0.914 | 0.739 | 0.536 | 0.507 | 0.528 | 0.477 | 0.438 | 0.718 | 0.732 | 0.682 | 0.684 | 0.563 |
| NCI-H441 | 0.577 | 0.665 | 0.608 | 0.22 | 0.18 | 0.278 | 0.251 | 0.248 | 0.245 | 0.251 | 0.237 | 0.284 | 0.264 | 0.138 | 0.132 | 0.453 | 0.423 | 0.29 | 0.337 | 0.312 |
| LK-2 | 1.1 | 1.03 | 1.04 | 0.692 | 0.421 | 0.291 | 0.238 | 0.284 | 0.208 | 0.24 | 0.311 | 0.335 | 0.262 | 0.165 | 0.115 | 0.787 | 0.798 | 0.637 | 0.583 | 0.426 |
| NCI-H2085 | 0.947 | 0.946 | 0.766 | 0.634 | 0.502 | 0.795 | 0.872 | 0.837 | 0.825 | 0.586 | 0.552 | 0.545 | 0.51 | 0.483 | 0.405 | 0.586 | 0.582 | 0.359 | 0.549 | 0.359 |
| NCI-H647 | 1.09 | 1.28 | 1.06 | 0.419 | 0.11 | 0.175 | 0.155 | 0.141 | 0.138 | 0.114 | 0.382 | 0.256 | 0.258 | 0.166 | 0.166 | 0.414 | 0.483 | 0.419 | 0.378 | 0.234 |
| SK-MES-1 | 0.932 | 1.02 | 1.05 | 0.81 | 0.682 | 0.984 | 0.958 | 0.827 | 0.86 | 0.646 | 0.362 | 0.36 | 0.434 | 0.303 | 0.331 | 0.474 | 0.518 | 0.458 | 0.426 | 0.395 |
| NCI-H1793 | 0.584 | 0.79 | 0.583 | 0.621 | 0.388 | 0.818 | 0.86 | 0.626 | 0.621 | 0.632 | 0.519 | 0.56 | 0.383 | 0.256 | 0.253 | 0.55 | 0.371 | 0.366 | 0.46 | 0.355 |
